Laboratory results from patent publication US20250195556A1, “COMPOSITIONS, KITS, AND METHODS TO INDUCE ACQUIRED CYTORESISTANCE USING STRESS PROTEIN INDUCERS” (FRED HUTCHINSON CANCER RESEARCH CENTER, priority 2014, published 2025).
“And” between values parts separate entries of the source, which are not always exact repeats. Equal values may be shown once.

Key:
[1] = tested on: Male CD-1 mice; assay: Maleate model of AKI (FeS, SnPP, FeS+SnPP); format: in vivo; settings: 1 mg FeS or 1 μmole SnPP IV alone 18 hrs before maleate
Excerpt: Methods. Male CD-1 mice (25-40 grams) Charles River, Wilmington, MA) were used for all experiments. They were housed under standard vivarium conditions with free food and water access. All experiments were approved by the Fred Hutchinson Cancer Research Center IACUC in accordance with NIH guidelines.
Effects of Fe sucrose (FeS)/tin protoporphyrin (SnPP) on AKI severity. Maleate model of AKI. When injected into rodents, maleate undergoes relatively selective proximal tubule cell uptake via organic anion transporters. Once intracellular accumulation occurs, maleate is a preferred substrate for succinyl-CoA: 3-oxoacid CoA transferase. […] Ample levels of CoA are essential for fatty acid “activation”, allowing for their subsequent metabolism through the Krebs cycle, yielding ATP. In the absence of this process, proximal tubule ATP depletion and cell injury result. Additionally, maleate conjugates the sulfhydryl group of glutathione (GSH), culminating in GSH depletion and potential oxidant tubular stress.
The following experiment tested whether FeS, SnPP or combined FeS+SnPP can mitigate this form of acute kidney injury (AKI). […] The severity of kidney injury was assessed by determining plasma blood urea nitrogen (BUN) and plasma creatinine (PCr) concentrations.

[2] = tested on: HO-1; assay: Renal cortical HO-1 mRNA (RT-PCR) and protein (ELISA) after IV myoglobin, SnPP or both (Example 1); format: in vivo, mice
Excerpt: The Glycerol Model of AKI. This is a widely used model of rhabdomyolysis-induced AKI that has been employed worldwide for 50 years. The model was used to test whether prophylactic interventions confer protection against AKI. Basically, the protocol is as follows: Male CD-1 mice (35-45 grams), obtained from Charles River Laboratories, Wilmington, M A were studied. Mice were maintained under standard vivarium conditions and generally housed for 1-3 weeks prior to study. The mice were placed in a cylindrical restraining cage, and then were given a tail vein injection of the test substances (see below) or test substance vehicle. The mice were then returned to their cages. Eighteen hours (hrs) later, the mice were briefly anesthetized by isoflurane inhalation, and given an intramuscular injection of hypertonic (50%) glycerol in a dose of 9 ml/Kg body weight. The dose is divided in two, with half injected into the muscle of each of the hind limbs. The mice were then returned to their cages. Eighteen hrs later, the mice were deeply anesthetized with pentobarbital (50-100 mg/Kg), the abdominal cavity was opened through a midline abdominal incision, a blood sample was obtained from the abdominal vena cava and the kidneys were resected. A kidney cross section was obtained and fixed in formalin for subsequent histologic analysis. The terminal blood samples were analyzed for BUN and creatinine, using commercially available assay kits. The remaining kidney tissue was subjected to cortical dissection, and the cortical tissues were then extracted for protein and RNA. The protein samples were saved for analysis of HO-1 levels, and the RNA samples were subjected to RT-PCR to quantify HO-1 mRNA as well as levels of other stress gene mRNAs (e.g. NGAL, haptoglobin, hemopexin, hepicidin).
Myoglobin+SnPP: To 5 mg of dry myoglobin was added 0.9 ml of PBS+0.1 ml of a stock SnPP solution (50 umole/ml). The resulting final concentrations were 5 mg/ml myoglobin+5 umoles/ml of SnPP. The tail vein was injected with 200 μl of this solution, which equals 1 mg myoglobin+1 umole SnPP. […]
Four hr post myoglobin vs myoglobin+SnPP vs SnPP alone experiments. To confirm that the myoglobin+SnPP has a synergistic effect in inducing HO-1 mRNA and HO-1 protein levels, each of the above combinations have been administered alone via tail vein injection. Four hrs later, the mice were sacrificed as noted above and the kidneys were harvested for assessment of HO-1 mRNA and protein levels. For additional information regarding methods, see Zager et al., Am J Physiol Renal Physiol. 2014 Jul. 30. Pii.

[3] = Plasma LDH 4 hr after IV test agents (marker of liver, kidney, lung and heart injury); format: in vivo, mice; settings: 4 hr IV
[4] = tested on: HO-1; assay: Renal cortical HO-1 mRNA and protein after IV N-Mgb, SnPP or both; format: in vivo, mice
Excerpt: Cytoresistance-inducing reagents. […] (#Mb0360; Sigma) was used as the primary cytoresistance-inducing agent. However, because myoglobin (Mgb) has an inherent nephrotoxic potential (particularly under conditions of volume depletion and aciduria), two approaches were used to mitigate Mgb's potential adverse effects. First, the Mgb was converted into a nitrited form by the addition of equimolar amount of sodium (Na) nitrite. In this regard, nitrite is an ambidentate molecule that directly binds 1:1 to myoglobin Fe either via its oxygen or nitrogen component. Cotton et al. Advanced inorganic chemistry. Hobocken, NJ: Wiley-Interscience, 1999:1355; Silaghi-Dumitrescu et al. Nitric Oxide 2014; 42 C: 32-9. […] Rassaf et al. Circ Res 2014; 114:1601-10; Totzeck et al. Circulation 2012; 126:325-34 [J Clin Invest 1992; 89:989-95]; Totzeck et al. PLOS One 2014; 22: e105951; Hendgen-Cotta et al. Proc Natl Acad Sci USA 2008; 105:10256-61.
Thirty-two mice were divided into 4 equal groups: (1) control mice; (2) mice treated with 1 mg of N-Mgb injection (as a bolus through the tail vein); (3) mice treated with […] of SnPP (via tail vein); and (4) mice treated with combined N-Mgb 1 SnPP. After either 4 hours (n=16) or 18 hours (n=16), the mice were deeply anesthetized with pentobarbital (50 mg/kg), the abdomen was opened through a midline abdominal incision, and the kidneys were removed. To determine potential effects on extrarenal organs, a liver lobe and the heart were also removed. The tissues were iced and then extracted for protein and RNA (RNeasy Plus Mini; Qiagen, Valencia, California) and subjected to enzyme linked immunosorbent assay (ELISA) and reverse transcriptase polymerase chain reaction (RT-PCR) for HO-1, haptoglobin, and IL-10 protein and messenger RNAs (mRNAs). Zager et al. J Am Soc Nephrol 2014; 25:998-1012; Zager et al. Am J Physiol 2012; 303: F139-48. As an assessment of renal function, control mice and the 18 hour after N-Mgb+SnPP-treated mice had blood urea nitrogen (BUN) and plasma creatinine levels measured. Additionally, transverse 10% formalin fixed kidney sections ([…]) were cut and stained with hematoxylin and eosin (H&E) and periodic acid Schiff (PAS) to further assess potential injury.

C=Cc1c2[n-]c(c1C)/C=c1\[n-]/c(c(C)c1C=C)=C\c1[n-]c(c(CCC(=O)O)c1C)/C=c1\[n-]c(c(C)c1CCC(=O)O)=C2.[Sn+4] [SnPP, tin protoporphyrin, reference compound]
Severity of maleate-induced renal injury (BUN, PCr) [1]: Neither SnPP alone nor FeS alone significantly altered | HO-1 protein expression (by ELISA), Average ([2]; cortex, 4 hr IV, 1 mg myoglobin, 1 μmole SnPP, PBS 13.5, carrier 21.5): 34.4 ng HO-1/mg protein | HO-1 protein expression (by ELISA) ([2]; cortex, 4 hr IV, 1 mg myoglobin, 1 μmole SnPP, individual mice): 31.5 ng HO-1/mg protein and 20.5 ng HO-1/mg protein and 53.6 ng HO-1/mg protein and 32.2 ng HO-1/mg protein | HO-1/GAPDH mRNA, Average ([2]; kidney, 4 hr post IV injection, control average 1.93): 6.94 | HO-1/GAPDH mRNA ([2]; kidney, 4 hr post IV injection, individual mice): 9.72 and 8.25 and 6.95 and 2.85 | Plasma LDH, Average ([3]; carrier 4.43): 4.51 Absorbance U LDH/ml | Plasma LDH ([3]; individual subjects): 5.00 Absorbance U LDH/ml and 3.23 Absorbance U LDH/ml and 4.54 Absorbance U LDH/ml and 5.29 Absorbance U LDH/ml | Kidney mRNA: HO-1 ([4]; 4 h after Rx, control 0.61): 4.38 ± 0.28 | Kidney HO-1 protein ([4]; 4 h after Rx, control 13.3): 22.9 ± 2.6 | Kidney mRNA cortex: HO-1 ([4]; 18 h after Rx, control 0.61): 0.63 ± 0.06 | Kidney protein: HO-1 ([4]; 18 h after Rx, control 13.3): 18 ± 2
